The values that follow come from US6462038B1, “Androgen receptor modulator compounds and methods” (Ligand Pharmaceuticals, Inc., priority 1999, dated 2002).

A value given as a limit tells only on which side of the number the result lay.

What all share (format): cell-based
In test [1] the target is T1, GR (Homo sapiens, UniProt P04150).
T1 construct: expressed in transfected cells; host or cells: CV-1 cells
T1 sequence (P04150 1-777): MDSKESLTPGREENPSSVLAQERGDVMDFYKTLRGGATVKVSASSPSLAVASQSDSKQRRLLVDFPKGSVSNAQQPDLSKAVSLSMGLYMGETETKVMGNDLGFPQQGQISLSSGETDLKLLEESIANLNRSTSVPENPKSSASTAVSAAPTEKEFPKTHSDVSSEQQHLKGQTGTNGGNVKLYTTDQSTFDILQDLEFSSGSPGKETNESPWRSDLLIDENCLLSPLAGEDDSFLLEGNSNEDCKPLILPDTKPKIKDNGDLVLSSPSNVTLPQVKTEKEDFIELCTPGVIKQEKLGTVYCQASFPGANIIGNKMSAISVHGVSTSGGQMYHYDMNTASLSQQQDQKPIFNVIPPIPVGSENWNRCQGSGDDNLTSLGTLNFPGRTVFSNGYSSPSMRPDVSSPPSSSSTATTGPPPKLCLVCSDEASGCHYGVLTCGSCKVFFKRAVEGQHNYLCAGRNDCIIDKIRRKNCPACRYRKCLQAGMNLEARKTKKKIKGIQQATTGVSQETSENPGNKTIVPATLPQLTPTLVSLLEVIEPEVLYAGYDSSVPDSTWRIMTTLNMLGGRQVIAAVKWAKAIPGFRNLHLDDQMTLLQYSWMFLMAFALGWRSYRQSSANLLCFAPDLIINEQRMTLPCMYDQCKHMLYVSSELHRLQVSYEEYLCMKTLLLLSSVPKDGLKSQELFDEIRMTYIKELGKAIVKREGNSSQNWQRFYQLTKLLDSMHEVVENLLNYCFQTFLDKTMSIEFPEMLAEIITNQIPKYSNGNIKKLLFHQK
The experiment in a line: co-transfection assay, GR antagonist. The procedure:
(§1) CV-1 cells (African green monkey kidney fibroblasts) were cultured in the presence of Dulbecco's Modified Eagle Medium (DMEM) supplemented with 10% charcoal resin-stripped fetal bovine serum (CH-FBS) then transferred to 96-well microtiter plates one day prior to transfection.
(§2) Three to four replicates were used for each sample.
(§3) After 40 hours, the cells were washed with PBS, lysed with a Triton X-100-based buffer and assayed for LUC and β-Gal activities using a luminometer or spectrophotometer, respectively. For each replicate, the normalized response (NR) was calculated as: […]

Test [2] deals with T2, ER (Homo sapiens, UniProt P03372).
T2 construct: expressed in transfected cells; host or cells: CV-1 cells
The experiment in a line: co-transfection assay, ER antagonist. The procedure:
as §1, §2, §3

The target of test [3] is T3, hAR (Homo sapiens, UniProt P10275).
T3 construct: expressed in transfected cells; host or cells: CV-1 cells (African green monkey kidney fibroblasts)
T3 sequence (P10275 1-920): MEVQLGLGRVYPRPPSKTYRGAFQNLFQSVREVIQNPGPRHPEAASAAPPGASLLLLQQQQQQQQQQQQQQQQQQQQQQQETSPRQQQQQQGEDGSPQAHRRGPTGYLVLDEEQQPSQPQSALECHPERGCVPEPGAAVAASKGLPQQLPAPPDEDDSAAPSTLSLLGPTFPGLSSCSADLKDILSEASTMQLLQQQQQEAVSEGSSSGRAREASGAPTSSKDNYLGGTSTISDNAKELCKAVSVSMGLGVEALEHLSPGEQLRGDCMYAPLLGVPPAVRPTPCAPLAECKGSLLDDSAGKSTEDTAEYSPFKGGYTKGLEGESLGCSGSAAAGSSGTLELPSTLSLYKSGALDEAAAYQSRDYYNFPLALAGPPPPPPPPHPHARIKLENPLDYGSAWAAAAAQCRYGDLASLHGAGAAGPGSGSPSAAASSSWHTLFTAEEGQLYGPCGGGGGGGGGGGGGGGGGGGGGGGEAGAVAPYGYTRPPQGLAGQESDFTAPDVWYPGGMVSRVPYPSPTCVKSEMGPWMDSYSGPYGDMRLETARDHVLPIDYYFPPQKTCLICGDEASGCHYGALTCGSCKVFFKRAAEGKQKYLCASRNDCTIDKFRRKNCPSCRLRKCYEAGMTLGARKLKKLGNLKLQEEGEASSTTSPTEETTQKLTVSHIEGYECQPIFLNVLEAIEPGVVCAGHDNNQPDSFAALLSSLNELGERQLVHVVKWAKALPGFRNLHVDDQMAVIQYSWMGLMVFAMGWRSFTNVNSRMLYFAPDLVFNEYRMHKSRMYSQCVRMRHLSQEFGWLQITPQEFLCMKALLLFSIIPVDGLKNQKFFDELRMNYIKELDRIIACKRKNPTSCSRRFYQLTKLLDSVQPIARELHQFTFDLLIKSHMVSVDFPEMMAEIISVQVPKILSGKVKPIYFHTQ
Description: co-transfection assay, AR antagonist (in presence of DHT), CV-1 cells. The following applies: for AR Antagonist CV-1 Cells Efficacy (%): hAR in CV-1 cells, maximal inhibition, DHT at EC50.

The target in test [4] is T4, PR (Homo sapiens, UniProt P06401).
T4 construct: expressed in transfected cells; host or cells: CV-1 cells
T4 sequence (P06401 1-933): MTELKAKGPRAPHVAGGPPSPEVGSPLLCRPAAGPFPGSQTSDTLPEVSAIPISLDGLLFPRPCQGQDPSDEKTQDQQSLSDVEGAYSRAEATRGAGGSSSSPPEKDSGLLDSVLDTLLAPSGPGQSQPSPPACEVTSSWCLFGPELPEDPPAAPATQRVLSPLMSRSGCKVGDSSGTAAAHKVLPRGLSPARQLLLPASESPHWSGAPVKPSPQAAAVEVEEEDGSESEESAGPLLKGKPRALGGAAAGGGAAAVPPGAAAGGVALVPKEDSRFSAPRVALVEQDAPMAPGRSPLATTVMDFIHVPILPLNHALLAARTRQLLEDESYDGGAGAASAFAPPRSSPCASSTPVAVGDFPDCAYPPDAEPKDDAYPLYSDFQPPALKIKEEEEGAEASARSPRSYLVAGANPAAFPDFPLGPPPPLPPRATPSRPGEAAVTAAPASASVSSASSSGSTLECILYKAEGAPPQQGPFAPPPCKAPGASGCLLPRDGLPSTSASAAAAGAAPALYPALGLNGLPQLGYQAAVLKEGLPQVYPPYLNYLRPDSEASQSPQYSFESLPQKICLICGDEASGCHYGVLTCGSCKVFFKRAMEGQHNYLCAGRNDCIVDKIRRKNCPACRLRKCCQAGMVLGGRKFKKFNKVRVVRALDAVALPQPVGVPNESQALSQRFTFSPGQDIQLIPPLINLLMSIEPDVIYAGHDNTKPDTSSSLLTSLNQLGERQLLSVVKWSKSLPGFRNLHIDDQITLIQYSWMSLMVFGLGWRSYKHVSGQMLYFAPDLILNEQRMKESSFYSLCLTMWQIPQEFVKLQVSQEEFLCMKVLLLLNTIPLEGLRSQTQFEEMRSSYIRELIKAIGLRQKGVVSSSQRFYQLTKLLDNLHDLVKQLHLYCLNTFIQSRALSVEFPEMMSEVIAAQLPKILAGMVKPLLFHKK
Description: co-transfection assay, PR agonist. As for the experimental part: as §1, §2, §3

T2 sequence (P03372 whole entry): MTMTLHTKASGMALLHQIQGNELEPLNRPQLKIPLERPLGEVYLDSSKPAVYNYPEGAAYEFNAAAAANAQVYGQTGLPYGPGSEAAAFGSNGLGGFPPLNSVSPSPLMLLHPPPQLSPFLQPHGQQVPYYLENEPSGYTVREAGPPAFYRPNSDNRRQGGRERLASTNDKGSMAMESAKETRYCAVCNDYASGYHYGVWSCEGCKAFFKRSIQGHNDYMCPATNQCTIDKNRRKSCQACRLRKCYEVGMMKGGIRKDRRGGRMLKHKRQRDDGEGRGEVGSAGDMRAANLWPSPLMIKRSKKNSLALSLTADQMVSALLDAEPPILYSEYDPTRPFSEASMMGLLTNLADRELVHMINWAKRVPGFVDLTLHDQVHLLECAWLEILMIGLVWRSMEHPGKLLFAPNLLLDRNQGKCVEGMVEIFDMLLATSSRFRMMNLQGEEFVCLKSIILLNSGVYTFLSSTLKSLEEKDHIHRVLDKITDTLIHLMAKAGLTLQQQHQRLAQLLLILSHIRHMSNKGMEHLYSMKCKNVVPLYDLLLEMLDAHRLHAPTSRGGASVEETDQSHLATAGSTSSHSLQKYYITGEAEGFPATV

Consider `CN1CCOc2cc3c(cc21)c(C(F)(F)F)cc(=O)n3C` [Compound 102, 1,2,3,6-Tetrahydro-1,6-dimethyl-9-(trifluoromethyl)-7H-[1,4]oxazino[3,2-g]quinolin-7-one], for which the figures for the IC50 in test [1], in test [2] and in test [3] were 3.2 µM, 5.9 µM and 0.022 µM, respectively. In addition, the “AR Antagonist CV-1 Cells Efficacy (%)” value in test [3] came out at 58%. Further, the concentration for a half-maximal effect (EC50) (usually the midpoint of the concentration-response curve) in test [4] is > 10 µM.

With `CCN1CCOc2cc3c(cc21)c(C(F)(F)F)cc(=O)n3C` [Compound 104, 1-Ethyl-1,2,3,6-tetrahydro-6-methyl-9-(trifluoromethyl)-7H-[1,4]oxazino[3,2-g]quinolin-7-one], the IC50 (commonly the concentration that inhibits the measured activity by half) is 0.83 µM in test [1], > 10 µM in test [2] and 0.026 µM in test [3]. Also, the “AR Antagonist CV-1 Cells Efficacy (%)” value in test [3] is reported as 68%. Also, the half-maximal effective concentration (EC50) in test [4] is > 10 µM.

As to `O=c1cc(C(F)(F)F)c2cc3c(cc2[nH]1)OCCN3CC(F)(F)F` [Compound 105, 1,2,3,6-Tetrahydro-1-(2,2,2-trifluoroethyl)-9-(trifluoromethyl)-7H-[1,4]oxazino[3,2-g]quinolin-7-one], the IC50 in test [1] is 6.7 µM; in test [2], > 10 µM. In test [4], the EC50 is > 10 µM.

As for `O=C1COc2cc3[nH]c(=O)cc(C(F)(F)F)c3cc2N1CC(F)(F)F` [Compound 137, 1,6-Dihydro-1-(2,2,2-trifluoroethyl)-9-(trifluoromethyl)-3H-[1,4]oxazino[3,2-g]-quinolin-2,7-dione], the IC50 in test [1] was > 10 µM; in test [2], > 10 µM; in test [3], 0.018 µM. In addition, the “AR Antagonist CV-1 Cells Efficacy (%)” value in test [3] was 84%. Moreover, in test [4], the EC50 is > 10 µM.
